Where a name gives a salt, the structure may show the parent alone. Read-outs that look alike come from different tables or passages of the source.

Data on two compounds can be found in US11136351B2 (priority 2016, dated 2021).

In experiment [1] the test system is HVA calcium channels in rat DRG neurons. It counts as cell-based.
The subject of a further experiment is mouse HVA Ca^2+ channel. It counts as cell-based. As to conditions: 50 μM.
The target of a further experiment is T1, human α9α10 nAChR (Homo sapiens, UniProt Q9GZZ6+Q9UGM1).
T1 construct: expressed in transfected cells; host or cells: Xenopus laevis oocytes
T1 sequence (Q9UGM1 26-479 limits assumed): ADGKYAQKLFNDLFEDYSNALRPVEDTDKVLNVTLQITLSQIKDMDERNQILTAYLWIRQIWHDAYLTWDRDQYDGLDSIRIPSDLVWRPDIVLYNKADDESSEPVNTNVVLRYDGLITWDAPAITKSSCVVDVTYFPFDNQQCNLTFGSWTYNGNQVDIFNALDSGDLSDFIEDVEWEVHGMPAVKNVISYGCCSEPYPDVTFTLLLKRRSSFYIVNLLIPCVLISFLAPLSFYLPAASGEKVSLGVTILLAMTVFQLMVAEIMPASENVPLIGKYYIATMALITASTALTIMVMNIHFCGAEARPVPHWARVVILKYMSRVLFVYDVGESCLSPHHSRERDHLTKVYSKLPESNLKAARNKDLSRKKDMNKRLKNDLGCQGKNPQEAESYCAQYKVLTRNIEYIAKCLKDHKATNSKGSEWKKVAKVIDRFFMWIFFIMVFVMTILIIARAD
T1 sequence (Q9GZZ6 25-450): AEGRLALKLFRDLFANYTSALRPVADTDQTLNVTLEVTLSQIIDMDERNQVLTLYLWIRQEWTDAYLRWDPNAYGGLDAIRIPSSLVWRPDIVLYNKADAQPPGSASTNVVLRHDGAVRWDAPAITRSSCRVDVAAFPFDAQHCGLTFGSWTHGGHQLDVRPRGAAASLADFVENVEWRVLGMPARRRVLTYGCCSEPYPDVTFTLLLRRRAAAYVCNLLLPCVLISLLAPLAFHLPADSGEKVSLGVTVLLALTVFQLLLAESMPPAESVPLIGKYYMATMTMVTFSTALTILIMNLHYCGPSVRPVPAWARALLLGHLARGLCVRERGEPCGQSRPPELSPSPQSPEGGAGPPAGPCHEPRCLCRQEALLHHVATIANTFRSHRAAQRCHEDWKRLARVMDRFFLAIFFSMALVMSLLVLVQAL
The class given is cell-based. As to conditions: 1 μM.

Another experiment addresses rat α9α10 nAChRs (Rattus norvegicus, UniProt P43144+Q9JLB5). As to conditions: cited from earlier work.
A further experiment concerns the target human α9α10 nAChRs (Homo sapiens, UniProt Q9GZZ6+Q9UGM1). As to conditions: cited from earlier work.
In the next experiment the target is α7 nAChRs (Homo sapiens, UniProt P36544). As to conditions: cited from earlier work.
α7 nAChRs, sequence (P36544 23-502 limits assumed): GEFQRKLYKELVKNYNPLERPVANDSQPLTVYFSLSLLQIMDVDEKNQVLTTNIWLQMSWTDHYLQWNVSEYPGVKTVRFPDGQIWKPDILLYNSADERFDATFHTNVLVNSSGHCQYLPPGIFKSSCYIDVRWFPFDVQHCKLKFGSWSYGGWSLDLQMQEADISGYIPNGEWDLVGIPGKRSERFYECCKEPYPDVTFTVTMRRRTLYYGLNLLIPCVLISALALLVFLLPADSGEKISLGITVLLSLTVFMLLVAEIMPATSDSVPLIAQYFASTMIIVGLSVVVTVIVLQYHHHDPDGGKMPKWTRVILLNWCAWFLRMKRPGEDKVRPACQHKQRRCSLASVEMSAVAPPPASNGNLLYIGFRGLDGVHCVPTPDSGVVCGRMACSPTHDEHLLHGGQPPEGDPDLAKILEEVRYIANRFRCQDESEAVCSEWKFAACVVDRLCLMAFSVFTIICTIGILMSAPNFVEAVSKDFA

human α9α10 nAChRs, sequence (Q9UGM1 26-479 limits assumed): as the sequence (Q9UGM1 26-479 limits assumed) above
human α9α10 nAChRs, sequence (Q9GZZ6 25-450): as the sequence (Q9GZZ6 25-450) above
rat α9α10 nAChRs, sequence (P43144 26-479 limits assumed): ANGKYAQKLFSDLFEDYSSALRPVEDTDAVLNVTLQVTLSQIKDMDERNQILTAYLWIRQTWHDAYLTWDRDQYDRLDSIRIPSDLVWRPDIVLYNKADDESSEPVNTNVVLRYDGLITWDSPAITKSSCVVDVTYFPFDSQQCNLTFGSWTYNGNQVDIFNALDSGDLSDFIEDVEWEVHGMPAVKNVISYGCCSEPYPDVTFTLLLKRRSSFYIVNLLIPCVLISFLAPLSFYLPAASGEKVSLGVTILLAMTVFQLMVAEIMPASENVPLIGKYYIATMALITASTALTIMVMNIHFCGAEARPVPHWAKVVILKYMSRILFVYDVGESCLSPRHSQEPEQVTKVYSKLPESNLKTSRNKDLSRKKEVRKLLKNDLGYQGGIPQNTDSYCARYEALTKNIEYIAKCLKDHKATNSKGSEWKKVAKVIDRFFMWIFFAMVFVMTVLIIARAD
rat α9α10 nAChRs, sequence (Q9JLB5 25-447 limits assumed): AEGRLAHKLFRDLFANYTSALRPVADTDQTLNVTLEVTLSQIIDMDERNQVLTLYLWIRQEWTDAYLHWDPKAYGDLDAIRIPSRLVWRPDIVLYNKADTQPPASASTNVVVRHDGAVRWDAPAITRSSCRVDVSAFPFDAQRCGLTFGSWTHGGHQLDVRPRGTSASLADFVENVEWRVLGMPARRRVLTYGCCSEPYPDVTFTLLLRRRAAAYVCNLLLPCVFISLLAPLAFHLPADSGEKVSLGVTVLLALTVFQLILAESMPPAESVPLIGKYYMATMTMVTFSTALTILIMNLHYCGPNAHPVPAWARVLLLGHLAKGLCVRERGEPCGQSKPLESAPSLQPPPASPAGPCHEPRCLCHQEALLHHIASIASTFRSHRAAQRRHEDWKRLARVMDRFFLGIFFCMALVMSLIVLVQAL

Regarding `NC[C@H](CC(=O)O)c1ccc(Cl)cc1` [Baclofen, R-(+)-baclofen hydrochloride], in experiment [1], the “reversibility of IBa inhibition” value is on record as “reversible on washout”. Further, in experiment [1] (50 μM), the “IBa I/Icontrol ± SEM (n)” value is reported as 0.64 ± 0.018 (36), the “fraction of total IBa suppressed” value was roughly 35% and the “rat HVA Ca^2+ channel I/Icontrol ± SEM (n)” value is listed as 0.64 ± 0.01 (33). Also, in the experiment with mouse HVA Ca^2+ channel, the “mouse HVA Ca^2+ channel I/Icontrol ± SEM (n)” value is 0.60 ± 0.03 (11) and the “peak ICa inhibition” value is 41.5±2.7%.

Regarding Vc1.1, the “inhibition of HVA calcium currents by globular, ribbon and beads isomers” value in experiment [1] is “found to inhibit HVA calcium currents”. The “rat HVA Ca^2+ channel I/Icontrol ± SEM (n)” value in experiment [1] (1 μM) is on record as 0.73 ± 0.03 (4). Also, the “human α9α10 nAChR I/Icontrol ± SEM (n)” value on human α9α10 nAChR was 0.57 ± 0.020 (17). The IC50 (as a rule, the point on the concentration scale where inhibition reaches its midpoint) was 64 nM at rat α9α10 nAChRs, 765 nM on human α9α10 nAChRs and roughly 7100 nM at α7 nAChRs.
